# According to US10450316B2, “Certain protein kinase inhibitor” (Chongqing Fochon Pharmaceutical Co., Ltd., priority 2015, dated 2019):
# pIC50: −log10 of the molar value.
# Tested on: BE(2)-C cell
# Assay: Cell proliferation assay (MTS) in BE(2)-C cells
# Assay type: cell-based
# Settings: Homo sapiens, inhibition of BE(2)-C cell proliferation, 48 h
# Method in brief: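 Proliferation read-out was MTS absorbance at 490 nm, with 650 nm as reference, after a 2 h MTS incubation, giving IC50 values. Before reading, BE(2)-C cells plated at 3000 per well were exposed to nine compound concentrations from 10000 down to 1.5 nM for 48 h at 37 °C, 5% CO2.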
row,Structure (SMILES),pIC50
1,"CCN1CCN(c2ccc(Nc3ncc(F)c(-c4cc(F)c5nc6n(c5c4)[C@H](C(F)F)CC6)n3)nc2)CC1 [Example 40, (S)-4-(1-(difluoromethyl)-5-fluoro-2,3-dihydro-1H-benzo[d]pyrrolo[1,2-a]imidazol-7-yl)-N-(5-(4-ethylpiperazin-1-yl)pyridin-2-yl)-5-fluoropyrimidin-2-amine]",< 6.00
2,"Fc1cnc(Nc2ccc(CN3CCN4CCC[C@@H]4C3)cn2)nc1-c1cc(F)c2nc3n(c2c1)[C@H](C(F)F)CC3 [Example 41, 4-((S)-1-(difluoromethyl)-5-fluoro-2,3-dihydro-1H-benzo[d]pyrrolo[1,2-a]imidazol-7-yl)-5-fluoro-N-(5-(((R)-hexahydropyrrolo[1,2-a]pyrazin-2(1H)-yl)methyl)pyridin-2-yl)pyrimidin-2-amine]",7.00 to 8.00
3,"Fc1cnc(Nc2ccc(CN3CC4(CCNCC4)C3)cn2)nc1-c1cc(F)c2nc3n(c2c1)[C@H](C(F)F)CC3 [Example 42, (S)-N-(5-((2,7-diazaspiro[3.5]nonan-2-yl)methyl)pyridin-2-yl)-4-(1-(difluoromethyl)-5-fluoro-2,3-dihydro-1H-benzo[d]pyrrolo[1,2-a]imidazol-7-yl)-5-fluoropyrimidin-2-amine]",< 7.00
4,"CN1CCC2(CC1)CN(Cc1ccc(Nc3ncc(F)c(-c4cc(F)c5nc6n(c5c4)[C@H](C(F)F)CC6)n3)nc1)C2 [Example 43, (S)-4-(1-(difluoromethyl)-5-fluoro-2,3-dihydro-1H-benzo[d]pyrrolo[1,2-a]imidazol-7-yl)-5-fluoro-N-(5-((7-methyl-2,7-diazaspiro[3.5]nonan-2-yl)methyl)pyridin-2-yl)pyrimidin-2-amine]",7.00 to 8.00
5,"CCN1CCC2(CC1)CN(Cc1ccc(Nc3ncc(F)c(-c4cc(F)c5nc6n(c5c4)[C@H](C(F)F)CC6)n3)nc1)C2 [Example 44, (S)-4-(1-(difluoromethyl)-5-fluoro-2,3-dihydro-1H-benzo[d]pyrrolo[1,2-a]imidazol-7-yl)-N-(5-((7-ethyl-2,7-diazaspiro[3.5]nonan-2-yl)methyl)pyridin-2-yl)-5-fluoropyrimidin-2-amine]",7.00 to 8.00
6,"Fc1cnc(Nc2ccc(CN3CC4(CNC4)C3)cn2)nc1-c1cc(F)c2nc3n(c2c1)[C@H](C(F)F)CC3 [Example 45, (S)-N-(5-((2,6-diazaspiro[3.3]heptan-2-yl)methyl)pyridin-2-yl)-4-(1-(difluoromethyl)-5-fluoro-2,3-dihydro-1H-benzo[d]pyrrolo[1,2-a]imidazol-7-yl)-5-fluoropyrimidin-2-amine]",< 6.00
7,"CN1CC2(C1)CN(Cc1ccc(Nc3ncc(F)c(-c4cc(F)c5nc6n(c5c4)[C@H](C(F)F)CC6)n3)nc1)C2 [Example 46, (S)-4-(1-(difluoromethyl)-5-fluoro-2,3-dihydro-1H-benzo[d]pyrrolo[1,2-a]imidazol-7-yl)-5-fluoro-N-(5-((6-methyl-2,6-diazaspiro[3.3]heptan-2-yl)methyl)pyridin-2-yl)pyrimidin-2-amine]",7.00 to 8.00
8,"CCN1CC2(C1)CN(Cc1ccc(Nc3ncc(F)c(-c4cc(F)c5nc6n(c5c4)[C@H](C(F)F)CC6)n3)nc1)C2 [Example 47, (S)-4-(1-(difluoromethyl)-5-fluoro-2,3-dihydro-1H-benzo[d]pyrrolo[1,2-a]imidazol-7-yl)-N-(5-((6-ethyl-2,6-diazaspiro[3.3]heptan-2-yl)methyl)pyridin-2-yl)-5-fluoropyrimidin-2-amine]",7.00 to 8.00
9,"Fc1cnc(Nc2ccc(CN3CC4CNCC4C3)cn2)nc1-c1cc(F)c2nc3n(c2c1)[C@H](C(F)F)CC3 (stereo partly drawn) [Example 48, 4-((S)-1-(difluoromethyl)-5-fluoro-2,3-dihydro-1H-benzo[d]pyrrolo[1,2-a]imidazol-7-yl)-5-fluoro-N-(5-((hexahydropyrrolo[3,4-c]pyrrol-2(1H)-yl)methyl)pyridin-2-yl)pyrimidin-2-amine]",< 7.00
10,"CN1CC2CN(Cc3ccc(Nc4ncc(F)c(-c5cc(F)c6nc7n(c6c5)[C@H](C(F)F)CC7)n4)nc3)CC2C1 (stereo partly drawn) [Example 49, 4-((S)-1-(difluoromethyl)-5-fluoro-2,3-dihydro-1H-benzo[d]pyrrolo[1,2-a]imidazol-7-yl)-5-fluoro-N-(5-((5-methylhexahydropyrrolo[3,4-c]pyrrol-2(1H)-yl)methyl)pyridin-2-yl)pyrimidin-2-amine]",7.00 to 8.00
11,"CCN1CC2CN(Cc3ccc(Nc4ncc(F)c(-c5cc(F)c6nc7n(c6c5)[C@H](C(F)F)CC7)n4)nc3)CC2C1 (stereo partly drawn) [Example 50, 4-((S)-1-(difluoromethyl)-5-fluoro-2,3-dihydro-1H-benzo[d]pyrrolo[1,2-a]imidazol-7-yl)-N-(5-((5-ethylhexahydropyrrolo[3,4-c]pyrrol-2(1H)-yl)methyl)pyridin-2-yl)-5-fluoropyrimidin-2-amine]",7.00 to 8.00
12,"Fc1cnc(Nc2ccc(CN3CCC4(CCNCC4)CC3)cn2)nc1-c1cc(F)c2nc3n(c2c1)[C@H](C(F)F)CC3 [Example 51, (S)-N-(5-((3,9-diazaspiro[5.5]undecan-3-yl)methyl)pyridin-2-yl)-4-(1-(difluoromethyl)-5-fluoro-2,3-dihydro-1H-benzo[d]pyrrolo[1,2-a]imidazol-7-yl)-5-fluoropyrimidin-2-amine]",< 7.00
13,"CN1CCC2(CC1)CCN(Cc1ccc(Nc3ncc(F)c(-c4cc(F)c5nc6n(c5c4)[C@H](C(F)F)CC6)n3)nc1)CC2 [Example 52, (S)-4-(1-(difluoromethyl)-5-fluoro-2,3-dihydro-1H-benzo[d]pyrrolo[1,2-a]imidazol-7-yl)-5-fluoro-N-(5-((9-methyl-3,9-diazaspiro[5.5]undecan-3-yl)methyl)pyridin-2-yl)pyrimidin-2-amine]",< 7.00
14,"CCN1CCC2(CC1)CCN(Cc1ccc(Nc3ncc(F)c(-c4cc(F)c5nc6n(c5c4)[C@H](C(F)F)CC6)n3)nc1)CC2 [Example 53, (S)-4-(1-(difluoromethyl)-5-fluoro-2,3-dihydro-1H-benzo[d]pyrrolo[1,2-a]imidazol-7-yl)-N-(5-((9-ethyl-3,9-diazaspiro[5.5]undecan-3-yl)methyl)pyridin-2-yl)-5-fluoropyrimidin-2-amine]",< 7.00
15,"Fc1cnc(Nc2ccc(CN3C4CCC3CNC4)cn2)nc1-c1cc(F)c2nc3n(c2c1)[C@H](C(F)F)CC3 [Example 54, N-(5-((3,8-diazabicyclo[3.2.1]octan-8-yl)methyl)pyridin-2-yl)-4-((S)-1-(difluoromethyl)-5-fluoro-2,3-dihydro-1H-benzo[d]pyrrolo[1,2-a]imidazol-7-yl)-5-fluoropyrimidin-2-amine]",< 7.00
16,"CN1CC2CCC(C1)N2Cc1ccc(Nc2ncc(F)c(-c3cc(F)c4nc5n(c4c3)[C@H](C(F)F)CC5)n2)nc1 [Example 55, 4-((S)-1-(difluoromethyl)-5-fluoro-2,3-dihydro-1H-benzo[d]pyrrolo[1,2-a]imidazol-7-yl)-5-fluoro-N-(5-((3-methyl-3,8-diazabicyclo[3.2.1]octan-8-yl)methyl)pyridin-2-yl)pyrimidin-2-amine]",7.00 to 8.00
17,"CCN1CC2CCC(C1)N2Cc1ccc(Nc2ncc(F)c(-c3cc(F)c4nc5n(c4c3)[C@H](C(F)F)CC5)n2)nc1 [Example 56, 4-((S)-1-(difluoromethyl)-5-fluoro-2,3-dihydro-1H-benzo[d]pyrrolo[1,2-a]imidazol-7-yl)-N-(5-((3-ethyl-3,8-diazabicyclo[3.2.1]octan-8-yl)methyl)pyridin-2-yl)-5-fluoropyrimidin-2-amine]",7.00 to 8.00
18,"Fc1cnc(Nc2ccc(CN3CC4CCC(C3)N4)cn2)nc1-c1cc(F)c2nc3n(c2c1)[C@H](C(F)F)CC3 [Example 57, N-(5-((3,8-diazabicyclo[3.2.1]octan-3-yl)methyl)pyridin-2-yl)-4-((S)-1-(difluoromethyl)-5-fluoro-2,3-dihydro-1H-benzo[d]pyrrolo[1,2-a]imidazol-7-yl)-5-fluoropyrimidin-2-amine]",< 7.00
19,"CN1C2CCC1CN(Cc1ccc(Nc3ncc(F)c(-c4cc(F)c5nc6n(c5c4)[C@H](C(F)F)CC6)n3)nc1)C2 [Example 58, 4-((S)-1-(difluoromethyl)-5-fluoro-2,3-dihydro-1H-benzo[d]pyrrolo[1,2-a]imidazol-7-yl)-5-fluoro-N-(5-((8-methyl-3,8-diazabicyclo[3.2.1]octan-3-yl)methyl)pyridin-2-yl)pyrimidin-2-amine]",7.00 to 8.00
20,"CCN1C2CCC1CN(Cc1ccc(Nc3ncc(F)c(-c4cc(F)c5nc6n(c5c4)[C@H](C(F)F)CC6)n3)nc1)C2 [Example 59, 4-((S)-1-(difluoromethyl)-5-fluoro-2,3-dihydro-1H-benzo[d]pyrrolo[1,2-a]imidazol-7-yl)-N-(5-((8-ethyl-3,8-diazabicyclo[3.2.1]octan-3-yl)methyl)pyridin-2-yl)-5-fluoropyrimidin-2-amine]",7.00 to 8.00
21,"Fc1cnc(Nc2ccc(CN3CCN4CCC[C@@H]4C3)cn2)nc1-c1cc(F)c2nc3n(c2c1)[C@H](C(F)(F)F)CC3 [Example 60, 5-fluoro-4-((S)-5-fluoro-1-(trifluoromethyl)-2,3-dihydro-1H-benzo[d]pyrrolo[1,2-a]imidazol-7-yl)-N-(5-(((R)-hexahydropyrrolo[1,2-a]pyrazin-2(1H)-yl)methyl)pyridin-2-yl)pyrimidin-2-amine]",7.00 to 8.00
22,"Fc1cnc(Nc2ccc(CN3CC4(CCNCC4)C3)cn2)nc1-c1cc(F)c2nc3n(c2c1)[C@H](C(F)(F)F)CC3 [Example 61, (S)-N-(5-((2,7-diazaspiro[3.5]nonan-2-yl)methyl)pyridin-2-yl)-5-fluoro-4-(5-fluoro-1-(trifluoro-methyl)-2,3-dihydro-1H-benzo[d]pyrrolo[1,2-a]imidazol-7-yl)pyrimidin-2-amine]",< 7.00
23,"CN1CCC2(CC1)CN(Cc1ccc(Nc3ncc(F)c(-c4cc(F)c5nc6n(c5c4)[C@H](C(F)(F)F)CC6)n3)nc1)C2 [Example 62, (S)-5-fluoro-4-(5-fluoro-1-(trifluoromethyl)-2,3-dihydro-1H-benzo[d]pyrrolo[1,2-a]imidazol-7-yl)-N-(5-((7-methyl-2,7-diazaspiro[3.5]nonan-2-yl)methyl)pyridin-2-yl)pyrimidin-2-amine]",7.00 to 8.00
